The results in this text go back to ChEMBL document CHEMBL2218064, “Structure-activity relationship data for chemical series of antagonists of the P2X7 receptor (Supplementary Bioactivity Data for publication CHEMBL1157114)”.

The target of the test is T1, P2X purinoceptor 7 (Homo sapiens, UniProt Q99572).
T1 sequence (Q99572 whole entry): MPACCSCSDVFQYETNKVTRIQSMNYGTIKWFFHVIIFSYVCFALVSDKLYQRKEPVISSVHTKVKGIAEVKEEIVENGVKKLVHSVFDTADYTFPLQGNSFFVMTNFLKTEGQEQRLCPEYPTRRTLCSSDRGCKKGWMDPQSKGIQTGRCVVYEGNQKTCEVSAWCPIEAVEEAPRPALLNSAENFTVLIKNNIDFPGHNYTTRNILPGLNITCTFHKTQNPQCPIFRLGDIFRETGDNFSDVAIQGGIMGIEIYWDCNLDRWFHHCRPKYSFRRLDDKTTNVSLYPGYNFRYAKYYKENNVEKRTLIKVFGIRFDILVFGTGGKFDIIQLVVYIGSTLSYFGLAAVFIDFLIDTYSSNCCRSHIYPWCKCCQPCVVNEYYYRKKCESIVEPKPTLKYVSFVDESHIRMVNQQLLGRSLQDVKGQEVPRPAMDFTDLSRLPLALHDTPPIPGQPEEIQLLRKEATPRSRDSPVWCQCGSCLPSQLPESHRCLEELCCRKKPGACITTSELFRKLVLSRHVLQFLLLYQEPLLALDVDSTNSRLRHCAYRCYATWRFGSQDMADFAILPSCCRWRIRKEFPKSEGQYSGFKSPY
Nature of the test: SUPPLEMENTARY: Inhibition of human P2X7 receptor assessed as inhibition of ethidium bromide accumulation. Same assay as CHEMBL1103860.

Each structure is given as a SMILES string. pIC50: −log10 of the molar value.

As usually defined, the pIC50 is −log10 of the IC50, conventionally taken in molar units. In the case of `CC(C)c1ccccc1N1CCN(C(=O)c2cccc(Cl)c2Cl)CC1=O`, the pIC50 is 8.00.

As to `Cc1cc(F)ccc1N1CCN(C(=O)c2cccc(Cl)c2Cl)CC1=O`, the pIC50 is 7.30.

Turning to `Cc1cc(F)cc(C)c1N1CCN(Cc2ccc(F)cc2Cl)C(=O)C1=O`, the pIC50 was 7.40.

As for `Cc1cc(F)cc(C)c1N1CCN(Cc2ccc(Cl)cc2Cl)C(=O)C1=O`, the pIC50 was 7.90.

As for `Cc1cc(F)cc(C)c1N1CCN(Cc2cccc(C(F)(F)F)c2Cl)C(=O)C1=O`, the pIC50 is 7.30.

Consider `Cc1cc(F)cc(C)c1N1CCN(Cc2cccc(Cl)c2Cl)C(=O)C1=O`, for which the pIC50 was 7.30.

`Cc1cc(F)cc(C)c1N1CCN(Cc2ccc(F)c(F)c2F)C(=O)C1=O`: the pIC50 is 6.50.

Consider `Cc1ccc(N2CCOCC2)cc1N1CCN(C(=O)c2cccc(C(F)(F)F)c2Cl)CC1=O`, for which the pIC50 is 7.80.

As for `CN1C(=O)N(c2cncnc2)C[C@H]1C(=O)NCc1cccc(C(F)(F)F)c1Cl`, the pIC50 was 7.90.

For `CN1C(=O)N(c2cncnc2)C[C@H]1C(=O)NCc1ccc(Cl)cc1Cl`, the pIC50 was 7.30.

For the compound `CN1C(=O)N(c2cncnc2)C[C@H]1C(=O)NCc1ccc(F)cc1Cl`, the pIC50 was 6.60.

Consider `CN1C(=O)N(CCCN2CCOCC2)CC1C(=O)NCc1cccc(C(F)(F)F)c1Cl` (configuration not stated), for which the pIC50 is 7.30.

On to `Cc1cc(F)cc(C)c1N1CCN(Cc2ccc(F)cc2C(F)(F)F)C(=O)C1=O`, for which the pIC50 was 7.10.

On to `CN(C)c1ccccc1N1CCN(Cc2ccc(F)cc2Cl)C(=O)C1=O`, for which the pIC50 was 7.20.

`Cc1cccc(C)c1N1CCN(Cc2cccc(C(F)(F)F)c2Cl)C(=O)C1=O`: the pIC50 was 8.20.

With `CN1C(=O)N(c2ncccn2)C[C@H]1C(=O)NCc1ccc(F)c(F)c1Cl`, the pIC50 is 8.10.

As for `O=C1C(=O)N(c2ccccc2N2CCCCC2)CCN1Cc1ccc(F)cc1Cl`, the pIC50 is 7.30.

Turning to `O=C(c1cccc(Cl)c1Cl)N1CCN(c2ccc(Cl)cc2)C(=O)C1`, the pIC50 was 6.90.

Turning to `Cc1c(Cl)cccc1CNC(=O)[C@@H]1CN(c2ncccn2)C(=O)N1C`, the pIC50 is 8.10.

As to `Cc1c(OCCN2CCOCC2)cccc1N1CCN(Cc2ccc(F)cc2Cl)C(=O)C1=O`, the pIC50 was 7.00.

As to `CN1C(=O)NC[C@H]1C(=O)NCc1ccc(F)c(F)c1Cl`, the pIC50 is 7.70.

For `Cc1c(N2CCOCC2)cccc1N1CCN(Cc2ccc(F)cc2Cl)C(=O)C1=O`, the pIC50 is 7.50.

As to `Cc1ccc(N2CCOCC2)c(N2CCN(Cc3ccc(F)cc3Cl)C(=O)C2=O)c1`, the pIC50 is 7.30.

With `Cc1cccnc1N1C[C@@H](C(=O)NCc2cccc(C(F)(F)F)c2Cl)N(C)C1=O`, the pIC50 was 8.30.

`Cc1cccnc1N1C[C@@H](C(=O)NCc2ccc(Cl)cc2Cl)N(C)C1=O`: the pIC50 was 7.80.

In the case of `Cc1cccnc1N1C[C@@H](C(=O)NCc2ccc(F)c(F)c2Cl)N(C)C1=O`, the pIC50 was 7.60.

For `O=C1C(=O)N(c2ccccc2N2CCCC2)CCN1Cc1ccc(F)cc1Cl`, the pIC50 was 7.40.

Consider `O=C(c1ccc(F)cc1Cl)N1CCN(c2ccccc2Cl)C(=O)C1`, for which the pIC50 was 7.40.

Regarding `O=C(c1ccc(Cl)cc1Cl)N1CCN(c2ccccc2Cl)C(=O)C1`, the pIC50 is 7.60.

Consider `O=C(c1cccc(Cl)c1Cl)N1CCN(c2ccc(F)cc2Cl)C(=O)C1`, for which the pIC50 was 7.50.

Take `O=C(c1cccc(C(F)(F)F)c1Cl)N1CCN(c2ccccc2Cl)C(=O)C1`: the pIC50 is 8.30.

For `Cc1ncccc1N1C[C@@H](C(=O)NCc2ccc(F)c(F)c2Cl)N(C)C1=O`, the pIC50 was 7.50.

Consider `Cc1ncccc1N1C[C@@H](C(=O)NCc2cccc(Cl)c2Cl)N(C)C1=O`, for which the pIC50 was 7.40.

For the compound `COc1c(Cl)cccc1N1CCN(Cc2ccc(F)cc2Cl)C(=O)C1=O`, the pIC50 was 7.20.

As for `O=C1C(=O)N(c2cccc3[nH]ccc23)CCN1Cc1ccc(F)cc1Cl`, the pIC50 was 7.90.

Take `O=C(c1cccc(C(F)(F)F)c1Cl)N1CCN(c2ccc(F)cc2Cl)C(=O)C1`: the pIC50 was 7.80.

As to `Cc1cc(N2C[C@@H](C(=O)NCc3ccc(F)c(F)c3Cl)N(C)C2=O)ccn1`, the pIC50 was 7.50.

In the case of `Cc1nc[nH]c1CN1C[C@@H](C(=O)NCc2ccc(F)c(F)c2Cl)N(C)C1=O`, the pIC50 is 6.70.

In the case of `O=C(c1cccc(C(F)(F)F)c1Cl)N1CCN(c2ccc(F)cc2)C(=O)C1`, the pIC50 is 7.60.

Consider `CN1CCN(C(=O)c2cccc(Cl)c2Cl)CC1=O`, for which the pIC50 was 6.70.

Consider `O=C1C(=O)N(c2cc(Cl)ccc2N2CCOCC2)CCN1Cc1ccc(F)cc1Cl`, for which the pIC50 was 7.50.

`COc1c(Br)cccc1N1CCN(Cc2ccc(F)cc2Cl)C(=O)C1=O`: the pIC50 was 7.30.

As for `CCc1ccccc1N1CCN(Cc2ccc(F)cc2Cl)C(=O)C1=O`, the pIC50 was 8.00.

In the case of `CCN1CCN(C(=O)c2cccc(Cl)c2Cl)CC1=O`, the pIC50 is 6.70.

Consider `O=C1CN(C(=O)c2cccc(Cl)c2Cl)CCN1Cc1ccc(F)cc1Cl`, for which the pIC50 was 6.80.

As to `CN1C(=O)N(CCN2CCOCC2)C[C@H]1C(=O)NCc1ccc(F)c(F)c1Cl`, the pIC50 was 7.20.

For `CC(C)N1CCN(C(=O)c2cccc(Cl)c2Cl)CC1=O`, the pIC50 was 6.90.

`CC(C)c1ccccc1N1CCN(Cc2ccc(F)cc2Cl)C(=O)C1=O`: the pIC50 is 8.10.

Regarding `O=C1C(=O)N(c2cc(F)ccc2N2CCOCC2)CCN1Cc1ccc(F)cc1Cl`, the pIC50 is 7.80.

As for `O=C1C(=O)N(c2cc(Br)ccc2Cl)CCN1Cc1ccc(F)cc1Cl`, the pIC50 is 8.00.

In the case of `O=C1C(=O)N(c2cccc3c2OCCO3)CCN1Cc1ccc(F)cc1Cl`, the pIC50 was 6.60.

Take `O=C1C(=O)N(c2cc(F)ccc2F)CCN1Cc1ccc(F)cc1Cl`: the negative-log IC50 (pIC50) was 6.80.

Turning to `CC(C)(C)c1ccccc1N1CCN(Cc2ccc(F)cc2Cl)C(=O)C1=O`, the pIC50 was 7.70.

With `O=C1C(=O)N(c2ccccc2-n2cccc2)CCN1Cc1ccc(F)cc1Cl`, the pIC50 was 7.00.

Take `Cc1cccc(N2CCN(Cc3ccc(F)cc3Cl)C(=O)C2=O)c1F`: the negative logarithm of the IC50 (pIC50) is 6.80.

`O=C1C(=O)N(c2ccccc2OC(F)(F)F)CCN1Cc1ccc(F)cc1Cl`: the pIC50 was 7.50.

With `O=C(c1cccc(Cl)c1Cl)N1CCN(c2ccc(F)cc2F)C(=O)C1`, the pIC50 was 6.90.

As for `O=C(c1ccc(Cl)cc1Cl)N1CCN(c2ccc(F)cc2F)C(=O)C1`, the pIC50 is 6.10.

As for `COc1ccc(Br)cc1N1CCN(Cc2ccc(F)cc2Cl)C(=O)C1=O`, the pIC50 was 7.10.

As to `O=C(c1cccc(C(F)(F)F)c1Cl)N1CCN(c2ccc(F)cc2F)C(=O)C1`, the pIC50 was 7.20.

In the case of `O=C1C(=O)N(c2ccc(F)cc2Cl)CCN1Cc1ccc(F)cc1Cl`, the pIC50 was 6.70.

For the compound `O=C1C(=O)N(c2cccc3ncccc23)CCN1Cc1ccc(F)cc1Cl`, the pIC50 is 6.30.

For `O=C1C(=O)N(c2cncc3ccccc23)CCN1Cc1ccc(F)cc1Cl`, the pIC50 was 6.80.

`Cc1cccc(C)c1N1CCN(Cc2ccc(F)cc2Cl)C(=O)C1=O`: the negative logarithm of the IC50 (pIC50) was 8.50.

As to `O=C1C(=O)N(c2ccccc2I)CCN1Cc1ccc(F)cc1Cl`, the pIC50 is 8.10.

`C[C@H]1CN(Cc2ccc(Cl)cc2Cl)C(=O)C(=O)N1c1ccccc1`: the pIC50 is 6.80.

On to `Cc1cc(F)ccc1N1CCN(Cc2ccc(F)cc2Cl)C(=O)C1=O`, for which the pIC50 was 6.60.

As for `CN1C(=O)N(c2cn(C)cn2)C[C@H]1C(=O)NCc1ccc(F)c(F)c1Cl`, the pIC50 is 7.80.

For the compound `CN1C(=O)N(c2nccn2C)C[C@H]1C(=O)NCc1ccc(F)c(F)c1Cl`, the pIC50 was 7.40.

For `CN1C(=O)N(c2ccnn2C)C[C@H]1C(=O)NCc1ccc(F)c(F)c1Cl`, the pIC50 was 7.70.

In the case of `CN1C[C@@H](C(=O)NCc2cccc(C(F)(F)F)c2Cl)NC1=O`, the pIC50 is 7.20.

With `CN1C[C@@H](C(=O)NCc2ccc(F)cc2Cl)NC1=O`, the pIC50 was 6.10.

On to `COc1cccc(N2CCN(Cc3ccc(F)cc3Cl)C(=O)C2=O)c1Cl`, for which the pIC50 was 7.60.

For the compound `CN1CCOc2cccc(N3CCN(Cc4ccc(F)cc4Cl)C(=O)C3=O)c21`, the pIC50 was 6.60.

For `O=C1C(=O)N(c2ccccc2C(F)(F)F)CCN1Cc1ccc(F)cc1Cl`, the pIC50 was 7.80.

With `O=C(c1cccc(Cl)c1Cl)N1CCN(c2cccc3ccccc23)C(=O)C1`, the pIC50 is 7.80.

For `COc1ccc(N2CCOCC2)cc1N1CCN(Cc2ccc(F)cc2Cl)C(=O)C1=O`, the pIC50 was 7.30.

As for `O=C(c1cccc(C(F)(F)F)c1Cl)N1CCN(c2cccc3ccccc23)C(=O)C1`, the pIC50 is 7.90.

As for `O=C1C(=O)N(c2ccccc2-c2ccccc2)CCN1Cc1ccc(F)cc1Cl`, the pIC50 was 6.90.

Turning to `Cc1c(Br)cccc1N1CCN(Cc2ccc(F)cc2Cl)C(=O)C1=O`, the pIC50 was 7.30.

As to `Cc1c(F)ccc(N2CCN(Cc3ccc(F)cc3Cl)C(=O)C2=O)c1C`, the pIC50 is 6.70.

As to `CN1C(=O)N(CCN2CCOCC2)CC1C(=O)NCc1cccc(C(F)(F)F)c1Cl` (configuration not stated), the negative-log IC50 (pIC50) is 7.60.

Take `CC(C)c1ccccc1N1CCN(C(=O)c2cccc(C(F)(F)F)c2Cl)CC1=O`: the pIC50 is 8.10.

On to `CN1C(=O)N(CCN2CCOCC2)CC1C(=O)NCc1ccc(Cl)cc1Cl` (configuration not stated), for which the pIC50 was 7.10.

With `Cc1ccc(N2CCOCC2)cc1N1CCN(C(=O)c2cccc(Cl)c2Cl)CC1=O`, the pIC50 is 7.80.

Turning to `CN1C(=O)N(CCN2CCOCC2)CC1C(=O)NCc1ccc(F)cc1Cl` (configuration not stated), the pIC50 is 6.60.

Take `CC(C)c1ccccc1N1CCN(C(=O)c2ccc(F)cc2Cl)CC1=O`: the pIC50 is 7.50.
